A value given as a limit tells only on which side of the number the result lay.

IDH1 R132H, sequence (O75874 whole entry R132H): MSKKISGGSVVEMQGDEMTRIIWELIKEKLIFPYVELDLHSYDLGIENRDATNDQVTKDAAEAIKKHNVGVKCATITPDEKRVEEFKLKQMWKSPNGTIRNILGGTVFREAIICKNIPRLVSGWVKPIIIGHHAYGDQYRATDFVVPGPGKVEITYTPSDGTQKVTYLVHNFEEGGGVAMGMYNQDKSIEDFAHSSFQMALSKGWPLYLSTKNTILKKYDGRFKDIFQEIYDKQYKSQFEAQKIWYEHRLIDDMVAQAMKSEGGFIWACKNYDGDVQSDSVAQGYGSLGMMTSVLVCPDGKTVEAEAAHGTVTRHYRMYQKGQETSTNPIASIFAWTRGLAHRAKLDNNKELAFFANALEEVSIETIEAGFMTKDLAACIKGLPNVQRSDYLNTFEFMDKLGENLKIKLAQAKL

One assay concerns the target IDH1 R132H (Homo sapiens (Human), UniProt O75874, R132H). In words: Assays for IDH1 R132H Inhibitors (NADPH/aKG, resazurin detection). As to conditions: IDH1 R132H enzyme, Table 2; read-out: IDHR132H Activity. The assay is classed as biochemical. In outline: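 Mutant enzyme in 150 mM NaCl, 10 mM MgCl2, 20 mM Tris pH 7.5, 0.03% BSA; compound in DMSO added to substrate mix of 8 uM NADPH and 2 mM aKG. Reaction ran 50 min at room temperature, then resazurin detection mix (30 μM) added for 5 min at room temperature.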
`CCCC(=O)N1CCN(c2nc(C3CCCCC3)c3c(c2C#N)CCOC3)C[C@H]1C` [Compound 379, (R)-6-(4-butyryl-3-methylpiperazin-1-yl)-8-cyclohexyl-3,4-dihydro-1H-pyrano[3,4-c]pyridine-5-carbonitrile]: the IC50 fell in the range of 1000 to 10000 nM.
As for `CC(C)[C@@H]1CN(c2nc(C3CC3)c3c(c2C#N)CC(C)(C)OC3)CCN1C(=O)COC1CCOC1` (stereo partly drawn) [Compound 417, 8-cyclopropyl-6-((3R)-3-isopropyl-4-(2-(tetrahydrofuran-3-yloxy)acetyl)piperazin-1-yl)-3,3-dimethyl-3,4-dihydro-1H-pyrano[3,4-c]pyridine-5-carbonitrile], the IC50 is 1000 to 10000 nM.
On the same count and under the same terms, in the case of `CC(C)c1nc(N2CCN(C(=O)c3ccco3)C(c3ccccc3)C2)c(C#N)c2c1COC(C)(C)C2` (centres unmarked) [Compound 154, 6-(4-(furan-2-carbonyl)-3-phenylpiperazin-1-yl)-8-isopropyl-3,3-dimethyl-3,4-dihydro-1H-pyrano[3,4-c]pyridine-5-carbonitrile] it was 500 to 1000 nM; in that of `CC(C)[C@@H]1CN(c2nc(C3CC3)c3c(c2C#N)CC(C)(C)OC3)CCN1C(=O)Cc1cccs1` [Compound 194], less than 500 nM.
Same read-out and setting: the figure for `CC(C)[C@@H]1CN(c2nc(C3CC3)c3c(c2C#N)CC(C)(C)OC3)CCN1C(=O)COCc1ccco1` [Compound 404, (R)-8-cyclopropyl-6-(4-(2-(furan-2-ylmethoxy)acetyl)-3-isopropylpiperazin-1-yl)-3,3-dimethyl-3,4-dihydro-1H-pyrano[3,4-c]pyridine-5-carbonitrile] is 1000 to 10000 nM; for `C[C@H]1CN(C(=O)c2ccco2)CCN1c1nc(C2CCCCC2)c2c(c1C#N)CCOC2` [Compound 201, (S)-8-cyclohexyl-6-(4-(furan-2-carbonyl)-2-methylpiperazin-1-yl)-3,4-dihydro-1H-pyrano[3,4-c]pyridine-5-carbonitrile] it is 1000 to 10000 nM; for `CC(C)[C@@H]1CN(c2nc(C3CC3)c3c(c2C#N)CC(C)(C)OC3)CCN1C(=O)c1ccoc1` [Compound 180, (R)-8-cyclopropyl-6-(4-(furan-3-carbonyl)-3-isopropylpiperazin-1-yl)-3,3-dimethyl-3,4-dihydro-1H-pyrano[3,4-c]pyridine-5-carbonitrile] it is less than 500 nM.
As for `CC1CN(c2nc(C3CCCCC3)c3c(c2C#N)CC(C)(C)OC3)CCN1C(=O)c1ccoc1` (centres unmarked) [Compound 169, 8-cyclohexyl-6-(4-(furan-3-carbonyl)-3-methylpiperazin-1-yl)-3,3-dimethyl-3,4-dihydro-1H-pyrano[3,4-c]pyridine-5-carbonitrile], the IC50 was 1000 to 10000 nM.
`CC(C)c1nc(N2CCN(C(=O)Cc3ccccn3)[C@H](C)C2)c(C#N)c2c1COC(C)(C)C2` [Compound 218, (R)-8-isopropyl-3,3-dimethyl-6-(3-methyl-4-(2-(pyridin-2-yl)acetyl)piperazin-1-yl)-3,4-dihydro-1H-pyrano[3,4-c]pyridine-5-carbonitrile]: the IC50 lay within 1000 to 10000 nM.
On the same count and under the same terms, the figure for `CC(C)c1nc(N2CCN(S(=O)(=O)c3cccs3)[C@H](C)C2)c(C#N)c2c1COC(C)(C)C2` [Compound 170, (R)-8-isopropyl-3,3-dimethyl-6-(3-methyl-4-(thiophen-2-ylsulfonyl)piperazin-1-yl)-3,4-dihydro-1H-pyrano[3,4-c]pyridine-5-carbonitrile] is 1000 to 10000 nM; for `CC(C)NC(=O)N1CCN(c2nc(C3CC3)c3c(c2C#N)CC(C)(C)OC3)C[C@H]1C(C)C` [Compound 287] it is 1000 to 10000 nM; for `CC(C)c1nc(N2CCN(C(=O)Cc3cccnc3)[C@H](C)C2)c(C#N)c2c1COC(C)(C)C2` [Compound 248, (R)-8-isopropyl-3,3-dimethyl-6-(3-methyl-4-(2-(pyridin-3-yl)acetyl)piperazin-1-yl)-3,4-dihydro-1H-pyrano[3,4-c]pyridine-5-carbonitrile] it is 1000 to 10000 nM.
On the same count and under the same terms, the figure for `CC[C@@H]1CN(c2nc(C3CC3)c3c(c2C#N)CC(C)(C)OC3)CCN1C(=O)Cc1cccc(OC)c1` [Compound 296] is 500 to 1000 nM; for `CC(C)[C@@H]1CN(c2nc(C3CC3)c3c(c2C#N)CC(C)(C)OC3)CCN1C(=O)Cc1cccnc1` [Compound 265] it is less than 500 nM.
On the same count and under the same terms, in the case of `CC[C@@H]1CN(c2nc(C(C)C)c3c(c2C#N)CC(C)(C)OC3)CCN1C(=O)Cc1cccs1` [Compound 206, (R)-6-(3-ethyl-4-(2-(thiophen-2-yl)acetyl)piperazin-1-yl)-8-isopropyl-3,3-dimethyl-3,4-dihydro-1H-pyrano[3,4-c]pyridine-5-carbonitrile] it was less than 500 nM.
`CC(=O)OCCCN1CCN(c2nc(C3CC3)c3c(c2C#N)CC(C)(C)OC3)C[C@H]1C(C)C` [Compound 322]: the IC50 lay within 1000 to 10000 nM.
Same read-out and setting: the figure for `CC(C)[C@@H]1CN(c2nc(C3CC3)c3c(c2C#N)CC(C)(C)OC3)CCN1C(=O)Cn1nccn1` [Compound 407, (R)-6-(4-(2-(2H-1,2,3-triazol-2-yl)acetyl)-3-isopropylpiperazin-1-yl)-8-cyclopropyl-3,3-dimethyl-3,4-dihydro-1H-pyrano[3,4-c]pyridine-5-carbonitrile] is 500 to 1000 nM; for `CC(C)[C@@H]1CN(c2nc(C3CC3)c3c(c2C#N)CC(C)(C)OC3)CCN1C(=O)c1cnn2cccnc12` [Compound 232, (R)-8-cyclopropyl-6-(3-isopropyl-4-(pyrazolo[1,5-a]pyrimidine-3-carbonyl)piperazin-1-yl)-3,3-dimethyl-3,4-dihydro-1H-pyrano[3,4-c]pyridine-5-carbonitrile] it is 1000 to 10000 nM.
Still for that read-out and setting: the figure for `COc1ccccc1CC(=O)N1CCN(c2nc(C3CC3)c3c(c2C#N)CC(C)(C)OC3)C[C@H]1C(C)C` [Compound 208] is 500 to 1000 nM; for `Cc1occc1C(=O)N1CCN(c2nc(C(C)C)c3c(c2C#N)CC(C)(C)OC3)C[C@H]1C(C)C` [Compound 176, (R)-8-isopropyl-6-(3-isopropyl-4-(2-methylfuran-3-carbonyl)piperazin-1-yl)-3,3-dimethyl-3,4-dihydro-1H-pyrano[3,4-c]pyridine-5-carbonitrile] it is less than 500 nM; for `CC(C)c1nc(N2CCN(C(=O)c3ccco3)C[C@@H]2C)c(C#N)c2c1COC(C)(C)C2` [Compound 202, (S)-6-(4-(furan-2-carbonyl)-2-methylpiperazin-1-yl)-8-isopropyl-3,3-dimethyl-3,4-dihydro-1H-pyrano[3,4-c]pyridine-5-carbonitrile] it is 1000 to 10000 nM.
As for `C[C@@H]1CN(c2nc(C3CCCCC3)c3c(c2C#N)CCOC3)CCN1C(=O)Cc1ccccn1` [Compound 238, (R)-8-cyclohexyl-6-(3-methyl-4-(2-(pyridin-2-yl)acetyl)piperazin-1-yl)-3,4-dihydro-1H-pyrano[3,4-c]pyridine-5-carbonitrile], the IC50 is 1000 to 10000 nM.
Take `CC(C)c1nc(N2CCN(C(=O)c3ccoc3)C(C)C2)c(C#N)c2c1COC(C)(C)C2` (centres unmarked) [Compound 138, 6-(4-(furan-3-carbonyl)-3-methylpiperazin-1-yl)-8-isopropyl-3,3-dimethyl-3,4-dihydro-1H-pyrano[3,4-c]pyridine-5-carbonitrile]: the IC50 was in the range of 1000 to 10000 nM.
Consider `CC(C)c1nc(N2CCN(C(=O)c3ccco3)[C@H](C)C2)c(C#N)c2c1COC(C)(C)C2` [Compound 148, (R)-6-(4-(furan-2-carbonyl)-3-methylpiperazin-1-yl)-8-isopropyl-3,3-dimethyl-3,4-dihydro-1H-pyrano[3,4-c]pyridine-5-carbonitrile], for which the IC50 lay in the range of 1000 to 10000 nM.
Take `CCC(=O)N1CCN(c2nc(C3CCCCC3)c3c(c2C#N)CCOC3)C[C@H]1C` [Compound 363, (R)-8-cyclohexyl-6-(3-methyl-4-propionylpiperazin-1-yl)-3,4-dihydro-1H-pyrano[3,4-c]pyridine-5-carbonitrile]: the IC50 fell in the range of 1000 to 10000 nM.
For the compound `CC(C)[C@@H]1CN(c2nc(C3CC3)c3c(c2C#N)CC(C)(C)OC3)CCN1C(=O)CCC(=O)O` [Compound 416, (R)-4-(4-(5-cyano-8-cyclopropyl-3,3-dimethyl-3,4-dihydro-1H-pyrano[3,4-c]pyridin-6-yl)-2-isopropylpiperazin-1-yl)-4-oxobutanoic acid], the IC50 is 1000 to 10000 nM.
The same measure, in the same setting: the figure for `C[C@@H]1CN(c2nc(C3CCCCC3)c3c(c2C#N)CCOC3)CCN1C(=O)NC1CC1` [Compound 360, (R)-4-(5-cyano-8-cyclohexyl-3,4-dihydro-1H-pyrano[3,4-c]pyridin-6-yl)-N-cyclopropyl-2-methylpiperazine-1-carboxamide] is 1000 to 10000 nM.
In the case of `CC(C)c1nc(N2CCN(C(=O)c3ccc(Cl)cc3Cl)[C@H](C)C2)c(C#N)c2c1COC(C)(C)C2` [Compound 166, (R)-6-(4-(2,4-dichlorobenzoyl)-3-methylpiperazin-1-yl)-8-isopropyl-3,3-dimethyl-3,4-dihydro-1H-pyrano[3,4-c]pyridine-5-carbonitrile], the IC50 was in the range of 1000 to 10000 nM.
The same measure, in the same setting: in the case of `CC(C)c1nc(N2CCN(C(=O)Nc3ccc(F)cc3)CC2)c(C#N)c2c1COCC2` [Compound 102, 4-(5-cyano-8-isopropyl-3,4-dihydro-1H-pyrano[3,4-c]pyridin-6-yl)-N-(4-fluorophenyl)piperazine-1-carboxamide] it was 1000 to 10000 nM; in that of `CC(C)c1nc(N2CCN(C(=O)Cc3ccccc3F)[C@H](C)C2)c(C#N)c2c1COC(C)(C)C2` [Compound 219, (R)-6-(4-(2-(2-fluorophenyl)acetyl)-3-methylpiperazin-1-yl)-8-isopropyl-3,3-dimethyl-3,4-dihydro-1H-pyrano[3,4-c]pyridine-5-carbonitrile], 1000 to 10000 nM; in that of `CC(C)c1nc(N2CCN(S(=O)(=O)c3cccs3)CC2)c(C#N)c2c1COCC2` [Compound 101], 1000 to 10000 nM.

The same assay, now with this note: IDH1 R132H enzyme, Table 3; read-out: R132H IC50.
With `COC(=O)OC[C@@H]1C[C@H]1C(=O)N1CCN(c2nc(C3CC3)c3c(c2C#N)CC(C)(C)OC3)C[C@H]1C(C)C` [Compound 472, ((1R,2R)-2-((R)-4-(5-cyano-8-cyclopropyl-3,3-dimethyl-3,4-dihydro-1H-pyrano[3,4-c]pyridin-6-yl)-2-isopropylpiperazine-1-carbonyl)cyclopropyl)methyl methyl carbonate], the IC50 is less than 500 nM.
